Measured values from ChEMBL document CHEMBL5724914, “Linking interpersonal differences in gut microbiota composition and drug biotransformation activity” (2024).

Tests used:
[1] = The drug is tested on Z-014 corresponding to rat gut metagenome with ENA study accession number: PRJEB37062 and ENA sample accession number: ERS12561814 for biotransformation under anaerobic condition. The drug concentrations were measured over 9 timepoints collected between 0 and 24 hours of incubation by liquid-chromatography-coupled mass spectrometry (LC–MS); settings: 2 µM
[2] = The drug is tested on Z-027 corresponding to metagenome with ENA study accession number: PRJEB37062 and ENA sample accession number: ERS12561826 for biotransformation under anaerobic condition. The drug concentrations were measured over 9 timepoints collected between 0 and 24 hours of incubation by liquid-chromatography-coupled mass spectrometry (LC–MS); settings: 2 µM
[3] = human gut metagenome, 24 h, 2 µM
[4] = The drug is tested on WLS-090 corresponding to human gut metagenome with ENA study accession number: PRJEB37062 and ENA sample accession number: ERS12561753 for biotransformation under anaerobic condition. The drug concentrations were measured over 9 timepoints collected between 0 and 24 hours of incubation by liquid-chromatography-coupled mass spectrometry (LC–MS); settings: 2 µM
[5] = The drug is tested on Z-012 corresponding to metagenome with ENA study accession number: PRJEB37062 and ENA sample accession number: ERS12561812 for biotransformation under anaerobic condition. The drug concentrations were measured over 9 timepoints collected between 0 and 24 hours of incubation by liquid-chromatography-coupled mass spectrometry (LC–MS); settings: 2 µM
[6] = human gut metagenome, 24 h, 2 µM; remark: listed apart in the source
[7] = human gut metagenome, 24 h, 2 µM; remark: listed apart in the source
[8] = The drug is tested on WLS-310 corresponding to human gut metagenome with ENA study accession number: PRJEB37062 and ENA sample accession number: ERS12561785 for biotransformation under anaerobic condition. The drug concentrations were measured over 9 timepoints collected between 0 and 24 hours of incubation by liquid-chromatography-coupled mass spectrometry (LC–MS); settings: 2 µM
[9] = human gut metagenome, 24 h, 2 µM; remark: listed apart in the source
[10] = human gut metagenome, 24 h, 2 µM; remark: listed apart in the source
[11] = The drug is tested on Z-016 corresponding to mouse gut metagenome with ENA study accession number: PRJEB37062 and ENA sample accession number: ERS12561815 for biotransformation under anaerobic condition. The drug concentrations were measured over 9 timepoints collected between 0 and 24 hours of incubation by liquid-chromatography-coupled mass spectrometry (LC–MS); settings: 2 µM
[12] = The drug is tested on Z-023 corresponding to metagenome with ENA study accession number: PRJEB37062 and ENA sample accession number: ERS12561822 for biotransformation under anaerobic condition. The drug concentrations were measured over 9 timepoints collected between 0 and 24 hours of incubation by liquid-chromatography-coupled mass spectrometry (LC–MS); settings: 2 µM
[13] = human gut metagenome, 24 h, 2 µM; remark: listed apart in the source
[14] = human gut metagenome, 24 h, 2 µM; remark: listed apart in the source
[15] = human gut metagenome, 24 h, 2 µM; remark: listed apart in the source
[16] = The drug is tested on Z-004 corresponding to metagenome with ENA study accession number: PRJEB37062 and ENA sample accession number: ERS12561804 for biotransformation under anaerobic condition. The drug concentrations were measured over 9 timepoints collected between 0 and 24 hours of incubation by liquid-chromatography-coupled mass spectrometry (LC–MS); settings: 2 µM
[17] = human gut metagenome, 24 h, 2 µM; remark: listed apart in the source
[18] = The drug is tested on WLS-220 corresponding to human gut metagenome with ENA study accession number: PRJEB37062 and ENA sample accession number: ERS12561769 for biotransformation under anaerobic condition. The drug concentrations were measured over 9 timepoints collected between 0 and 24 hours of incubation by liquid-chromatography-coupled mass spectrometry (LC–MS); settings: 2 µM
[19] = The drug is tested on Z-019 corresponding to rat gut metagenome with ENA study accession number: PRJEB37062 and ENA sample accession number: ERS12561818 for biotransformation under anaerobic condition. The drug concentrations were measured over 9 timepoints collected between 0 and 24 hours of incubation by liquid-chromatography-coupled mass spectrometry (LC–MS); settings: 2 µM
[20] = The drug is tested on Z-018 corresponding to pig gut metagenome with ENA study accession number: PRJEB37062 and ENA sample accession number: ERS12561817 for biotransformation under anaerobic condition. The drug concentrations were measured over 9 timepoints collected between 0 and 24 hours of incubation by liquid-chromatography-coupled mass spectrometry (LC–MS); settings: 2 µM
Further: call rule not given here.

CN(C)CCC=C1c2ccccc2COc2ccccc21 [DOXEPIN]
Bacterial Biotransformation [1]: Compound NOT metabolized | Bacterial Biotransformation [2]: Compound NOT metabolized | Bacterial Biotransformation [3]: Compound NOT metabolized | Bacterial Biotransformation [4]: Compound metabolized | Bacterial Biotransformation [5]: Compound NOT metabolized | Bacterial Biotransformation [6]: Compound NOT metabolized | Bacterial Biotransformation [7]: Compound NOT metabolized | Bacterial Biotransformation [8]: Compound metabolized | Bacterial Biotransformation [9]: Compound NOT metabolized | Bacterial Biotransformation [10]: Compound metabolized | Bacterial Biotransformation [11]: Compound NOT metabolized | Bacterial Biotransformation [12]: Compound metabolized | Bacterial Biotransformation [13]: Compound metabolized | Bacterial Biotransformation [14]: Compound NOT metabolized | Bacterial Biotransformation [15]: Compound NOT metabolized | Bacterial Biotransformation [16]: Compound NOT metabolized | Bacterial Biotransformation [17]: Compound NOT metabolized | Bacterial Biotransformation [18]: Compound metabolized | Bacterial Biotransformation [19]: Compound NOT metabolized | Bacterial Biotransformation [20]: Compound NOT metabolized

Nc1nc(N)nc(-c2cc(Cl)ccc2Cl)n1.O=C(O)/C=C\C(=O)O [IRSOGLADINE MALEATE]
Bacterial Biotransformation [1]: Compound NOT metabolized | Bacterial Biotransformation [2]: Compound NOT metabolized | Bacterial Biotransformation [3]: Compound NOT metabolized | Bacterial Biotransformation [4]: Compound NOT metabolized | Bacterial Biotransformation [5]: Compound NOT metabolized | Bacterial Biotransformation [6]: Compound NOT metabolized | Bacterial Biotransformation [7]: Compound NOT metabolized | Bacterial Biotransformation [8]: Compound NOT metabolized | Bacterial Biotransformation [9]: Compound NOT metabolized | Bacterial Biotransformation [10]: Compound NOT metabolized | Bacterial Biotransformation [11]: Compound NOT metabolized | Bacterial Biotransformation [12]: Compound NOT metabolized | Bacterial Biotransformation [13]: Compound NOT metabolized | Bacterial Biotransformation [14]: Compound NOT metabolized | Bacterial Biotransformation [15]: Compound NOT metabolized | Bacterial Biotransformation [16]: Compound NOT metabolized | Bacterial Biotransformation [17]: Compound NOT metabolized | Bacterial Biotransformation [18]: Compound NOT metabolized | Bacterial Biotransformation [19]: Compound NOT metabolized | Bacterial Biotransformation [20]: Compound NOT metabolized

C[C@]12CCC(=O)C=C1[C@@H]1C[C@@H]1[C@H]1[C@@H]3[C@@H]4C[C@@H]4[C@@]4(CCC(=O)O4)[C@@]3(C)CC[C@@H]12 [DROSPIRENONE]
Bacterial Biotransformation [1]: Compound NOT metabolized | Bacterial Biotransformation [2]: Compound NOT metabolized | Bacterial Biotransformation [3]: Compound NOT metabolized | Bacterial Biotransformation [4]: Compound NOT metabolized | Bacterial Biotransformation [5]: Compound NOT metabolized | Bacterial Biotransformation [6]: Compound NOT metabolized | Bacterial Biotransformation [7]: Compound metabolized | Bacterial Biotransformation [8]: Compound metabolized | Bacterial Biotransformation [9]: Compound NOT metabolized | Bacterial Biotransformation [10]: Compound metabolized | Bacterial Biotransformation [11]: Compound metabolized | Bacterial Biotransformation [12]: Compound metabolized | Bacterial Biotransformation [13]: Compound NOT metabolized | Bacterial Biotransformation [14]: Compound NOT metabolized | Bacterial Biotransformation [15]: Compound metabolized | Bacterial Biotransformation [16]: Compound NOT metabolized | Bacterial Biotransformation [17]: Compound metabolized | Bacterial Biotransformation [18]: Compound metabolized | Bacterial Biotransformation [19]: Compound NOT metabolized | Bacterial Biotransformation [20]: Compound metabolized

COc1ccc(/C=C/C(=O)Nc2ccccc2C(=O)O)cc1OC
Bacterial Biotransformation [1]: Compound metabolized | Bacterial Biotransformation [2]: Compound metabolized | Bacterial Biotransformation [3]: Compound NOT metabolized | Bacterial Biotransformation [4]: Compound NOT metabolized | Bacterial Biotransformation [5]: Compound NOT metabolized | Bacterial Biotransformation [6]: Compound NOT metabolized | Bacterial Biotransformation [7]: Compound metabolized | Bacterial Biotransformation [8]: Compound metabolized | Bacterial Biotransformation [9]: Compound NOT metabolized | Bacterial Biotransformation [10]: Compound NOT metabolized | Bacterial Biotransformation [11]: Compound metabolized | Bacterial Biotransformation [12]: Compound metabolized | Bacterial Biotransformation [13]: Compound NOT metabolized | Bacterial Biotransformation [14]: Compound NOT metabolized | Bacterial Biotransformation [15]: Compound NOT metabolized | Bacterial Biotransformation [16]: Compound NOT metabolized | Bacterial Biotransformation [17]: Compound NOT metabolized | Bacterial Biotransformation [18]: Compound NOT metabolized | Bacterial Biotransformation [19]: Compound NOT metabolized | Bacterial Biotransformation [20]: Compound metabolized

CC(C)NCC(O)COc1ccc(CC(N)=O)cc1 (stereo not given) [ATENOLOL]
Bacterial Biotransformation [1]: Compound NOT metabolized | Bacterial Biotransformation [2]: Compound NOT metabolized | Bacterial Biotransformation [3]: Compound NOT metabolized | Bacterial Biotransformation [4]: Compound metabolized | Bacterial Biotransformation [5]: Compound NOT metabolized | Bacterial Biotransformation [6]: Compound NOT metabolized | Bacterial Biotransformation [7]: Compound metabolized | Bacterial Biotransformation [8]: Compound metabolized | Bacterial Biotransformation [9]: Compound metabolized | Bacterial Biotransformation [10]: Compound NOT metabolized | Bacterial Biotransformation [11]: Compound NOT metabolized | Bacterial Biotransformation [12]: Compound NOT metabolized | Bacterial Biotransformation [13]: Compound NOT metabolized | Bacterial Biotransformation [14]: Compound NOT metabolized | Bacterial Biotransformation [15]: Compound NOT metabolized | Bacterial Biotransformation [16]: Compound NOT metabolized | Bacterial Biotransformation [17]: Compound NOT metabolized | Bacterial Biotransformation [18]: Compound NOT metabolized | Bacterial Biotransformation [19]: Compound NOT metabolized | Bacterial Biotransformation [20]: Compound NOT metabolized
